Values quoted from earlier work in patent US20040024036A1, “Pharmaceutical composition for transdermal delivery of befloxatone” (priority 2000, published 2004).

Experiments:
[1] = target: T1, MAO-A (Homo sapiens, UniProt P21397); conditions: reversible inhibitor
T1 sequence (P21397 1-527): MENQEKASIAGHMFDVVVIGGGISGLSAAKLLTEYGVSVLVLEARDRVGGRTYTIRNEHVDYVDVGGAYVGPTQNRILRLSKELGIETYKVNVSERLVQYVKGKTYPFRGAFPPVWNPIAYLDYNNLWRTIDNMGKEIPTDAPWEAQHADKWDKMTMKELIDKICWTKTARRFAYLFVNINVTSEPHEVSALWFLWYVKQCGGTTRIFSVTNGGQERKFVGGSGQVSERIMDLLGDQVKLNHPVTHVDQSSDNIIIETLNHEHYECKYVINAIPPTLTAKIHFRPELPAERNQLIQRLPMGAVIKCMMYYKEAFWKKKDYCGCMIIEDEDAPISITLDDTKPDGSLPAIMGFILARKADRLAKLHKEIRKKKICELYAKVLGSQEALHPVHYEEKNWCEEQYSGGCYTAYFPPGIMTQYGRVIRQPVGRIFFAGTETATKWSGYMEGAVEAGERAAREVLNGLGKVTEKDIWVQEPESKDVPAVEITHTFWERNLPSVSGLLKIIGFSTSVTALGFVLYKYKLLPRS

[2] = system: noradrenalin (NA) reuptake
[3] = system: serotonin (5-HT) reuptake
[4] = system: dopamine (DA) reuptake
[5] = target: T2, MAO-B (Homo sapiens, UniProt P27338); conditions: MAO-A versus MAO-B
T2 sequence (P27338 1-520): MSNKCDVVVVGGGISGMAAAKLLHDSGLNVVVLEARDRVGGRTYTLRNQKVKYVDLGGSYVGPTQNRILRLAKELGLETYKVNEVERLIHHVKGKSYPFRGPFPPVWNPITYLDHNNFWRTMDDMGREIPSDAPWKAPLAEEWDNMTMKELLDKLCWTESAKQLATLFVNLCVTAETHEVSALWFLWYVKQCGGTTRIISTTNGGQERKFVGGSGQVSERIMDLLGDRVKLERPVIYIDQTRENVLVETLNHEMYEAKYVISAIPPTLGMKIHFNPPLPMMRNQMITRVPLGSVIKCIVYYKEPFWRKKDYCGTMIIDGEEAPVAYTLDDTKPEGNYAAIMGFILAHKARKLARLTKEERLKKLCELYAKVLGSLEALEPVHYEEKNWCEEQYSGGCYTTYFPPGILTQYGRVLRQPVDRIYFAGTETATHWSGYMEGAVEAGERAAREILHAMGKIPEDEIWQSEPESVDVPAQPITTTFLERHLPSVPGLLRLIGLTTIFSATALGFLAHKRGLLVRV

For `COC[C@H]1CN(c2ccc(OCC[C@@H](O)C(F)(F)F)cc2)C(=O)O1` [befloxatone], the “affinity for the A isoform (MAO-A)” value [1] is listed as “very high affinity”, the “effect on noradrenalin (NA) reuptake” value [2] is listed as “does not affect” and the “effect on serotonin (5-HT) reuptake” value [3] is listed as “does not affect”. The “effect on dopamine (DA) reuptake” value [4] was “does not affect” and the “selectivity toward the B isoform (MAO-B)” value [5] was “very good selectivity”.
